In assay [1] the target is T1, human progesterone receptor B (Homo sapiens, UniProt P06401).
T1 construct: expressed in transfected cells; host or cells: SK-N-MC human neuroblastoma cells, stably transfected with pRChPR-B-neo and pMMTV-LUC
T1 sequence (P06401 1-933): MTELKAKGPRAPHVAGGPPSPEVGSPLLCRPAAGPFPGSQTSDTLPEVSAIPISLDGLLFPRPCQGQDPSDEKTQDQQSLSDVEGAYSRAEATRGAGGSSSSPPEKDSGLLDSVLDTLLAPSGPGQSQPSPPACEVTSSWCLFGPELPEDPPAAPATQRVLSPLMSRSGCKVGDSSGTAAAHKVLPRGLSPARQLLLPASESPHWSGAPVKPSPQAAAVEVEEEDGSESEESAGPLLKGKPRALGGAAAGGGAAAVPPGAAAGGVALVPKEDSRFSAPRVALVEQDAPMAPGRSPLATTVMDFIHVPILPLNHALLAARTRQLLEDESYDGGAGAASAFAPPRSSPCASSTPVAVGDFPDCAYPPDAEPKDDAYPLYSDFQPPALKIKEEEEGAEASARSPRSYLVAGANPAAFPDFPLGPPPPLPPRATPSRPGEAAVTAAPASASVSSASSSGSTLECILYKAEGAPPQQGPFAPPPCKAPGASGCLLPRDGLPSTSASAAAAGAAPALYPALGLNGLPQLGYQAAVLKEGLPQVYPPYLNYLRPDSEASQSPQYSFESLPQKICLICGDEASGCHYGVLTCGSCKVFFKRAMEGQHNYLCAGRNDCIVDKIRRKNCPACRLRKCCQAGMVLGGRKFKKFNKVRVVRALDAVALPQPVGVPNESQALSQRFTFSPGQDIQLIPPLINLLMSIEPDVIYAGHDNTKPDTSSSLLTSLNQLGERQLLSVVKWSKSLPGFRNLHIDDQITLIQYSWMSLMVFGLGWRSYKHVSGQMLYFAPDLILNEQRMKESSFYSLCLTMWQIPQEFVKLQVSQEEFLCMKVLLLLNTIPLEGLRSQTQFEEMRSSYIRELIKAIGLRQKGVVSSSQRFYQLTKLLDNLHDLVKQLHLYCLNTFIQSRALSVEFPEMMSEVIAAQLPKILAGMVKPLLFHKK
The assay is described as follows: Progesterone receptor-antagonistic action in stably transfected SK-N-MC cells with MMTV-LUC reporter (PR-B). Conditions: antagonistic potency against 0.1 nmol/l promegestone, 24 hours, luciferase. Type of assay: cell-based. On the procedure: (§1) Determination of Progesterone Receptor-Antagonistic Action in Stable Transfectants of Human Neuroblastoma Cells (SK-N-MC Cells) with the Human Progesterone A or Progesterone B Receptor and an MN-LUC Reporter Construct
(§2) SK-N-MC cells (human neuroblastoma cells) which have been stably transfected with plasmids expressing the human progesterone receptor B (pRChPR-B-neo) or the human progesterone receptor A (pRChPR-A-neo) and a reporter construct (pMMTV-LUC) were incubated for 24 hours either in the absence (negative control) or in the presence of ascending amounts of the particular test compound (0.01 nmol/l, 0.1 nmol/l, 1 nmol/l, 10 nmol/l, 100 nmol/l and […]), in order to determine the agonistic efficacy. As a positive control of the reporter gene induction, the cells were treated with the synthetic gestagen promegestone (0.01 nmol/l, 0.1 nmol/l, 1 nmol/l, 10 nmol/l, 100 nmol/l and […]). To determine the antagonistic activity, the cells were treated with 0.1 nmol/l promegestone and additionally with ascending amounts of the particular test compound (0.01 nmol/l, 0.1 nmol/l, 1 nmol/l, 10 nmol/l, 100 nmol/l and […]). The activity of the reporter gene LUC (LUC=luciferase) was determined in the cell lysates and measured as RLU (relative light units). All measurements are reported as % efficacy and as EC50 and IC50 concentrations.

In assay [2] the target is T2, human progesterone receptor A (Homo sapiens, UniProt P06401).
T2 construct: expressed in transfected cells; host or cells: SK-N-MC human neuroblastoma cells, stably transfected with pRChPR-A-neo and pMMTV-LUC
T2 sequence (P06401 1-769 isoform P06401-2): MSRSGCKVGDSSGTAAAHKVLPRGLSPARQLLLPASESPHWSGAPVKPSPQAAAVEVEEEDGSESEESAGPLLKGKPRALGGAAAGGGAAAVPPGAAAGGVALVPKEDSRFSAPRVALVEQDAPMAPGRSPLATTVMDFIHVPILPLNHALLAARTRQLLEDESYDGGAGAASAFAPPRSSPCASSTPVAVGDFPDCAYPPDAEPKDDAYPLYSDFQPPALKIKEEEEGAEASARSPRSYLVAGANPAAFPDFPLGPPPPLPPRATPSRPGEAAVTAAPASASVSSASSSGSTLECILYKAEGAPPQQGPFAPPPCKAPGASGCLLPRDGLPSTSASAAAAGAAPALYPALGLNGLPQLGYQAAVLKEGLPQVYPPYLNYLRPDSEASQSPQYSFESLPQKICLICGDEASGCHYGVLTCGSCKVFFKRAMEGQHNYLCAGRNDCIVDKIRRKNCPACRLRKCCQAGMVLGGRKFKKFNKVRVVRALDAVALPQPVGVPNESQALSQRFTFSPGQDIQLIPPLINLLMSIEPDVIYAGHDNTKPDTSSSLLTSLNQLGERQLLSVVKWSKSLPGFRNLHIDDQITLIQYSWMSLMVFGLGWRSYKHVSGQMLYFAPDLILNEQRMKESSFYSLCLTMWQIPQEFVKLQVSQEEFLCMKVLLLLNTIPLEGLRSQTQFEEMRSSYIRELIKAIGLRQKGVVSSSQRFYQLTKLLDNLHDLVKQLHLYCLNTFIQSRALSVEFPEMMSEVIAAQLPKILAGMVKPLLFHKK
Description: Progesterone receptor-antagonistic action in stably transfected SK-N-MC cells with MMTV-LUC reporter (PR-A). The assay is classed as cell-based. The conditions noted are these: antagonistic potency against 0.1 nmol/l promegestone, 24 hours, luciferase. As to the method: as §1, §2

As for `COc1ccc(C/C=C/c2ccc([C@H]3C[C@@]4(C)[C@@H](CC[C@@]4(O)C(F)(F)C(F)(F)F)[C@@H]4CCC5=CC(=O)CCC5=C43)cc2)cc1` [Example 3, (8S,11R,13S,14S,17S)-17-hydroxy-11-{4-[(E)-3-(4-methoxyphenyl)-propenyl]phenyl}-13-methyl-17-pentafluoroethyl-1,2,6,7,8,11,12,13,14,15,16,17-dodecahydrocyclopenta[a]phenanthren-3-one], the IC50 in assay [1] was 1.8 nM; in assay [2], 1.5 nM.

For `COC(=O)C(C/C=C/c1ccc([C@H]2C[C@@]3(C)[C@@H](CC[C@@]3(O)C(F)(F)C(F)(F)F)[C@@H]3CCC4=CC(=O)CCC4=C32)cc1)C(=O)OC` [Example 4, 2-{(E)-3-[4-((8S,11R,13S,14S,17S)-17-hydroxy-13-methyl-3-oxo-17-pentafluoroethyl-2,3,6,7,8,11,12,13,14,15,16,17-dodecahydro-1H-cyclopenta[a]phenanthren-11-yl)phenyl]allyl}malonic acid dimethyl ester], the IC50 in assay [1] amounted to 1.1 nM; in assay [2], 1 nM.

`C=C(C)c1ccc([C@H]2C[C@@]3(C)[C@@H](CC[C@@]3(O)C(F)(F)C(F)(F)F)[C@@H]3CCC4=CC(=O)CCC4=C32)cc1` [Example 11, (8S,11R,13S,14S,17S)-17-hydroxy-11-(4-isopropenylphenyl)-13-methyl-17-pentafluoroethyl-1,2,6,7,8,11,12,13,14,15,16,17-dodecahydrocyclopenta[a]phenanthren-3-one] had an IC50 in assay [1] of 0.012 nM.

Take `CCOC(=O)/C=C/c1ccc([C@H]2C[C@@]3(C)[C@@H](CC[C@@]3(O)C(F)(F)C(F)(F)F)[C@@H]3CCC4=CC(=O)CCC4=C32)cc1` [Example 12, (E)-3-[4-((8S,11R,13S,14S,17S)-17-hydroxy-13-methyl-3-oxo-17-pentafluoroethyl-2,3,6,7,8,11,12,13,14,15,16,17-dodecahydro-1H-cyclopenta[a]phenanthren-11-yl)phenyl]acrylic acid ethyl ester]: the IC50 came out at 0.26 nM in assay [1] and 0.13 nM in assay [2].

Take `CCOC(=O)/C=C/C=C/c1ccc([C@H]2C[C@@]3(C)[C@@H](CC[C@@]3(O)C(F)(F)C(F)(F)F)[C@@H]3CCC4=CC(=O)CCC4=C32)cc1` [Example 15, (2E,4E)-5-[4-((8S,11R,13S,14S,17S)-17-hydroxy-13-methyl-3-oxo-17-pentafluoroethyl-2,3,6,7,8,11,12,13,14,15,16,17-dodecahydro-1H-cyclopenta[a]phenanthren-11-yl)phenyl]penta-2,4-dienoic acid ethyl ester]: the IC50 in assay [1] was less than 0.01 nM; in assay [2] it was 0.011 nM.

Regarding `C=Cc1cccc([C@H]2C[C@@]3(C)[C@@H](CC[C@@]3(O)C(F)(F)C(F)(F)F)[C@@H]3CCC4=CC(=O)CCC4=C32)c1` [Example 19, (8S,11R,13S,14S,17S)-17-hydroxy-13-methyl-17-pentafluoroethyl-11-(3-vinylphenyl)-1,2,6,7,8,11,12,13,14,15,16,17-dodecahydrocyclopenta[a]phenanthren-3-one], the IC50 in assay [1] and in assay [2] was 3 nM each time.

Consider `C=C(C)c1cccc([C@H]2C[C@@]3(C)[C@@H](CC[C@@]3(O)C(F)(F)C(F)(F)F)[C@@H]3CCC4=CC(=O)CCC4=C32)c1` [Example 20, (8S,11R,13S,14S,17S)-17-hydroxy-11-(3-isopropenylphenyl)-13-methyl-17-pentafluoroethyl-1,2,6,7,8,11,12,13,14,15,16,17-dodecahydrocyclopenta[a]phenanthren-3-one], for which the IC50 in assay [1] was 11 nM; in assay [2], 9 nM.

For the compound `Cc1nc(/C=C/c2cccc([C@H]3C[C@@]4(C)[C@@H](CC[C@@]4(O)C(F)(F)C(F)(F)F)[C@@H]4CCC5=CC(=O)CCC5=C43)c2)cs1` [Example 24, (8S,11R,13S,14S,17S)-17-hydroxy-13-methyl-11-{3-[(E)-2-(2-methylthiazol-4-yl)vinyl]phenyl}-17-pentafluoroethyl-1,2,6,7,8,11,12,13,14,15,16,17-dodecahydrocyclopenta[a]phenanthren-3-one], the IC50 in assay [1] and in assay [2] was 1 nM each time.

On to `Cc1nc2cc(/C=C/c3cccc([C@H]4C[C@@]5(C)[C@@H](CC[C@@]5(O)C(F)(F)C(F)(F)F)[C@@H]5CCC6=CC(=O)CCC6=C54)c3)ccc2s1` [Example 25, (8S,11R,13S,14S,17S)-17-hydroxy-13-methyl-11-{3-[(E)-2-(2-methylbenzothiazol-5-yl)vinyl]phenyl}-17-pentafluoroethyl-1,2,6,7,8,11,12,13,14,15,16,17-dodecahydrocyclopenta[a]phenanthren-3-one], for which the figures for the IC50 in assay [1] and in assay [2] were 2 nM and 1 nM, respectively.

`C[C@]12C[C@H](c3ccc(/C=C/CNC(=O)Nc4ccccc4)cc3)C3=C4CCC(=O)C=C4CC[C@H]3[C@@H]1CC[C@@]2(O)C(F)(F)C(F)(F)F` [Example 42, 1-{(E)-3-[4-((8S,11R,13S,14S,17S)-17-hydroxy-13-methyl-3-oxo-17-pentafluoroethyl-2,3,6,7,8,11,12,13,14,15,16,17-dodecahydro-1H-cyclopenta[a]phenanthren-11-yl)phenyl]allyl}-3-phenylurea] gave an IC50 in assay [2] of 0.1 nM.

In assay [2], `COc1ccc(NC(=O)NC/C=C/c2ccc([C@H]3C[C@@]4(C)[C@@H](CC[C@@]4(O)C(F)(F)C(F)(F)F)[C@@H]4CCC5=CC(=O)CCC5=C43)cc2)cc1` [Example 54, 1-{(E)-3-[4-((8S,11R,13S,14S,17S)-17-hydroxy-13-methyl-3-oxo-17-pentafluoroethyl-2,3,6,7,8,11,12,13,14,15,16,17-dodecahydro-1H-cyclopenta[a]phenanthren-11-yl)phenyl]allyl}-3-(4-methoxyphenyl)urea] came in with an IC50 of 0.1 nM.

In assay [2], `C[C@]12C[C@H](c3ccc(/C=C/CNC(=O)Nc4ccc(N5CCCCC5)cc4)cc3)C3=C4CCC(=O)C=C4CC[C@H]3[C@@H]1CC[C@@]2(O)C(F)(F)C(F)(F)F` [Example 58, 1-{(E)-3-[4-((8S,11R,13S,14S,17S)-17-hydroxy-13-methyl-3-oxo-17-pentafluoroethyl-2,3,6,7,8,11,12,13,14,15,16,17-dodecahydro-1H-cyclopenta[a]phenanthren-11-yl)phenyl]allyl}-3-(4-piperidin-1-ylphenyl)urea] came in with an IC50 of 0.5 nM.

The values above are taken from US9156877B2, “17-hydroxy-17-pentafluorethyl-estra-4,9(10)-dien-11-benzylidene derivatives, methods for the production thereof and use thereof for treating diseases” (Bayer Intellectual Property GmbH, priority 2009, dated 2015).
